Reference: patent US11407741B2, “Compounds and their use as selective inhibitors of caspase-2” (priority 2017, dated 2022)
Where a SMILES comes first, the peptide text is derived from it. [ ]: non-standard residue; d: D form. The star is where a group is joined. Pro(3S-CH2tBu) = CC(C)(C)C[C@H]1CCN[C@@H]1C(=O)O; Quinaldoyl = O=C(c1ccc2ccccc2n1)*; X1 = c1ncc(CO*)s1

Tested on: HeLa cells
Assay: Protection against vincristine-induced cell death, propidium iodide flow cytometry
Assay type: cell-based, human
Set-up: Index of cell death: key to the marks not given beside the values
Experimental: Human HeLa cells are used in this model. HeLa cells (cervical cancer cell line) were obtained from American Type Cell Collection (ATCC), and were cultured in Dulbecco's Modified Eagle Medium (DMEM, High Glucose, GlutaMAX™, Pyruvate) (Gibco, Life technologies), supplemented with 10% FCS and antibiotics (Gibco, Life technologies).
Human HeLa cells are treated with a solution of Vincristine (Sigma Aldrich) (diluted in water at 5 mM). Vincristine works partly by binding to the Tubulin protein, stopping the cell from separating its chromosomes during the metaphase; the cell then undergoes apoptosis through a caspase-dependent process.
Propidium iodide (PI) (Sigma Aldrich) is used to evaluate plasma membrane permeabilisation, a sign of cell death.
24 hours before pharmacological treatment, HeLa cells were plated into 24-well plates. […] Cells were exposed or not (control), to 20 nM Vincristine for 48 hours.
The content of each well is collected is added to PBS and then centrifuged (900 rpm; 5 min).
The pellet obtained is put into 300 μL of a medium comprising propidium iodide and incubated (37° C., 5% CO2) in the dark for 5 minutes and then subjected to flow cytometry analysis.
Fluorescence-Activated Cell Sorting was performed using a FACSCalibur cytometer (Becton Dickinson, San Jose, Calif.). For each sample, data from 5,000 Cells were registered and analyzed with the CellQuest Pro software (Becton Dickinson). Analysis included FSC (Forward Scatter/relating to the cells'size) and SSC (Side Scatter/relating to the cells' granularity) parameters together with FL-1 and FL-3 channel.
The percentage of propidium iodide positive cells gives an estimation of cell death.

CC(C)[C@H](NC(=O)c1ccc2ccccc2n1)C(=O)N[C@@H](CC(=O)O)C(=O)N[C@H](C(=O)N1CC[C@H](CC(C)(C)C)[C@H]1C(=O)N[C@@H](CC(=O)O)C(=O)OCc1cncs1)C(C)C [Compound 3, (S)-4-(((S)-1-((2S,3S)-2-(((S)-3-carboxy-1-oxo-1-(thiazol-5 - ylmethoxy)propan-2-yl)carbamoyl)-3-neopenthylpyrrolidin-1-yl)-3-methyl-1-oxobutan-2-yl)amino)-3-((S)-3-methyl-2-(quinoline-2-carboxamido)butanamido)-4-oxobutanoic acid] (Quinaldoyl-VDV[Pro(3S-CH2tBu)]D-X1)
Index of cell death (20 nM Vincristine for 48 hours, propidium iodide positive cells): ++
Protection against apoptotic death induced by vincristine (compound added 1 hour before vincristine): protect the cells against apoptotic death induced by vincristine in a dose-dependent manner
